Experimental data: patent US5773424A, “Treatment of toxoplasmosis” (priority 1994, dated 1998)

B1: T. gondii adenosine kinase (Toxoplasma gondii) (protein)
chain: MAVDSSNSATGPMRVFAIGNPILDLVAEVPSSFLDEFFLKRGDATLATPEQMRIYSTLDQFNPTSLPGGSALNSVRVVQKLLRKPGSAGYMGAIGDDPRGQVLKELCDKEGLATRFMVAPGQSTGVCAVLINEKERTLCTHLGACGSFRLPEDWTTFASGALIFYATAYTLTATPKNALEVAGYAHGIPNAIFTLNLSAPFCVELYKDAMQSLLLHTNILFGNEEEFAHLAKVHNLVAAEKTALSTANKEHAVEVCTGALRLLTAGQNTGATKLVVMTRGHNPVIAAEQTADGTVVVHEVGVPVVAAEKIVDTNGAGDAFVGGFLYALSQGKTVKQCIMCGNACAQDVIQHVGFSLSFTSLPC

Experiments:
[1] = test system: extracts from mouse liver; assay: Inhibition of phosphorylation of adenosine; type: biochemical; details: mouse liver extract
Experimental: (§1) Enzyme assay. […] Incubation was carried out at 37° C.

[2] = test system: extracts from human liver; assay: Inhibition of phosphorylation of adenosine; type: biochemical; details: human liver extract
Experimental: as §1

[3] = test system: extracts of Toxoplasma gondii; assay: Inhibition of phosphorylation of adenosine (or inosine) to nucleoside 5'-monophosphate; type: biochemical; details: T. gondii extract
Experimental: as §1

extracts of human liver = assay: Inhibition of phosphorylation of NBMPR; type: biochemical
Experimental: as §1

[4] = molecular target: T. gondii adenosine kinase (Toxoplasma gondii, UniProt Q9TVW2); assay: biochemical; details: AppKi for inhibition of T. gondii adenosine kinase, 5 μM adenosine; ± range, at least two estimations
[5] = test system: extracts of Toxoplasma gondii; assay: Inhibition of phosphorylation of NBMPR (formation of NBMPR-P); type: biochemical
Experimental: as §1

[6] = substrate: Nc1ncnc2c1ncn2[C@@H]1O[C@H](CO)[C@@H](O)[C@H]1O; assay: cells, lysate or membranes named; details: other: adenosine as substrate; pH 8.0
Experimental: Preparation of cytosol extracts. For the structure activity relationships studies, approximately 5×10^8 T. gondii were suspended in 1.2 ml of 50 mM N-2-hydroxyethylpiperazine-N'-2-ethanesulfonic acid (HEPES)-Cl (pH 8.0)/1 mM dithiothreitol and homogenized for 30 seconds at setting 10, using a Brinnmann Instruments Polytron homogenizer fitted with a PTA 7K1 probe. The homogenate was then centrifuged at approximately 116,000 g for 1 hour at 5° and the supernatant (cytosol extract) collected and used as the enzyme source. Fresh cytosol extracts were prepared for each experiment.
Adenosine kinase assay. T. gondii adenosine kinase activity was measured by following the formation of [^14 C]AMP from [^14 C]adenosine and ATP. […]
Reactions were started by the addition of [8-^14 C]adenosine, incubated at 37° for 10 minutes and terminated by placing the reaction tubes in a boiling water bath for 2 minutes. […] The substrate and product spots (which accounted for all of the radioactivity on the plates) were identified by UV quenching, cut out, and the radioactivity quantitated by liquid scintillation counting in 20 ml of Scintilene, using a Packard 460 scintillation counter. […] Enzyme velocity was calculated by multiplying the fraction of AMP formed from adenosine times the amount of adenosine in the assay, and dividing by the incubation time. […]

| Molecule | Effect on the phosphorylation of adenosine, in words [1] | Effect on the phosphorylation of adenosine, in words [2] | Effect on the phosphorylation of adenosine, in words [3] | % Inhibition of phosphorylation of NBMPR, Human Liver (extracts of human liver; 100 μM) [%] | % Inhibition of phosphorylation of NBMPR, Human Liver (extracts of human liver; 250 μM) [%] | % Inhibition of phosphorylation of NBMPR, Human Liver (extracts of human liver; 500 μM) [%] | Ki [4] [µM] | % Inhibition of phosphorylation of NBMPR, T. gondii ([5]; 100 μM) [%] | % Inhibition of phosphorylation of NBMPR, T. gondii ([5]; 250 μM) [%] | % Inhibition of phosphorylation of NBMPR, T. gondii ([5]; 500 μM) [%] | % Inhibition of phosphorylation of NBMPR, Human Liver (extracts of human liver; 25 μM) [%] | % Inhibition of phosphorylation of NBMPR, Human Liver (extracts of human liver; 50 μM) [%] | % Inhibition of phosphorylation of NBMPR, T. gondii ([5]; 25 μM) [%] | % Inhibition of phosphorylation of NBMPR, T. gondii ([5]; 50 μM) [%] | Km [6] [µM] |
| --- | --- | --- | --- | --- | --- | --- | --- | --- | --- | --- | --- | --- | --- | --- | --- |
| Nc1ncnc2c([C@@H]3O[C@H](CO)[C@@H](O)[C@H]3O)n[nH]c12 [Compound 81, 8-Aza-9-deazaadenosine (formycin A)] | no effect | no effect | no effect | 0 | 0 | 0 | 1400 | 0 | 0 | 0 | – | – | – | – | – |
| Nc1nc2c(nc(N)n2[C@@H]2O[C@H](CO)[C@@H](O)[C@H]2O)c(=O)[nH]1 [8-Aminoguanosine, reference compound] | no effect | no effect | no effect | 0 | – | – | – | 0 | – | – | 0 | 0 | 0 | 0 | – |
| B1 | – | – | – | – | – | – | – | – | – | – | – | – | – | – | 5 |
